This experiment deals with TEAD-YAP/TAZ interaction. Briefly: CTGF ELISA assay. The class given is cell-based, human. To be noted: CTGF in culture supernatant of NCI-H2052 cells, 24 hours with compound. Here is the method: The detection of CTGF expression level can assessed the binding activity of TEAD-YAP/TAZ transcription factor, and the CTGF expression level was quantified by SimpleStep ELISA® kit (Abcam, ab261851).
NCI-H2052 cells (Purchased from ATCC) were cultured in RPMI 1640 medium, adding 10% FBS and 1% Penicillin-Streptomycin Solution and 1 mM Sodium pyruvate. The day before compounds treatment, the cultured cells were washed with PBS and digested with trypsin, then centrifuged and collected. Discarded the supernatant, the cells were resuspended in fresh complete medium. After cells counted, cells were seeded at 6500 cells/well in 96-well plates. And then cells were cultured overnight in incubator (37° C., 5% CO2).
After the cells were cultured overnight, discarded the culture supernatant, then washed with PBS solution, cells were incubated with 200 μl medium containing compounds in each well. The starting concentration was 10 μM and serial dilution in DMSO and medium were performed to achieve a final DMSO concentration of 0.5% (Final compounds concentration were 10000, 2500, 625, 156, 39.1, 9.77, 2.44, 0.61 nM, 0 nM (0.5% DMSO), The cells were then cultured in incubator (37° C., 5% CO2). Cultured for 24 hours, the cells were centrifuged at 1500 RPM at 4° C. for 5 minutes, and then 50 μl of culture supernatant were tested for CTGF ELISA assay.
The Human CTGF SimpleStep ELISA® Kit (Abcam, ab261851) employs an affinity tag labeled capture antibody and a reporter conjugated detector antibody which immunocapture the sample analyte in solution. This entire complex (capture antibody/analyte/detector antibody) is in turn immobilized via immunoaffinity of an anti-tag antibody coating the well. To perform the assay, samples or standards are added to the wells, followed by the antibody mix (capture antibody/detector antibody). After incubation, the wells are washed to remove unbound material. TMB Development Solution is added and during incubation is catalyzed by HRP, generating blue coloration. This reaction is then stopped by addition of Stop Solution completing any color change from blue to yellow. Signal is generated proportionally to the amount of bound analyte and the intensity is measured at 450 nm. Firstly, prepare all reagents, samples, and standards as instructed. Add 50 μl standard or sample to appropriate wells. Then add 50 μl of the Antibody Cocktail to each well. Seal the plate and incubate for 1 hour at room temperature on a plate shaker. Wash each well with Wash Buffer three times. Add 100 μl of TMB Development Solution to each well and incubate for 10 minutes in the dark on a plate shaker. Add 100 μl of Stop Solution to each well. Shake plate on a plate shaker for 1 minute to mix. Record the OD at 450 nm. Determine the concentration of the target protein in the sample by the standard curve.
EC50 value was determined by fitting the concentration response curves using GraphPad Prism software. The compounds of the present invention were tested for their capacity to inhibit TEAD-YAP/TAZ interaction according to the fitted curves of CTGF concentration response to compounds.
(ELISA stands for enzyme-linked immunosorbent assay.)

One may read the EC50 as the concentration giving half of the maximal effect. `C=C(F)C(=O)NCC(C=O)n1nc(-c2ccc(C(F)(F)F)cc2)c2cccnc21` (stereo not shown) [Com. EX.1, 2-fluoro-N-(3-oxo-2-(3-(4-(trifluoromethyl)phenyl)-1H-pyrazolo[3,4-b]pyridin-1-yl)propyl)acrylamide, reference compound]: the EC50 is greater than 10 µM.
`C=C(F)C(=O)NCC(C(=O)O)n1nc(-c2ccc(C(F)(F)F)cc2)c2cccnc21` (stereo not shown) [Com. EX.2, 3-(2-fluoroacrylamido)-2-(3-(4-(trifluoromethyl)phenyl)-1H-pyrazolo[3,4-b]pyridin-1-yl)propanoic acid, reference compound]: the EC50 was greater than 10 µM.
As for `CC(=O)N1CCC(n2nc(-c3ccc(C(F)(F)F)cc3)c3ccccc32)C1` (stereo not shown) [Com. EX.3, 1-(3-(3-(4-(trifluoromethyl)phenyl)-1H-indazol-1-yl)pyrrolidin-1-yl)ethan-1-one, reference compound], the EC50 is greater than 10 µM.
In the case of `C=C(F)C(=O)N1CC(n2c(=O)n(-c3ccc(Oc4ccccc4)cc3)c3cnccc32)C1` [Com. EX.4, 1-(1-(2-fluoroacryloyl)azetidin-3-yl)-3-(4-phenoxyphenyl)-1,3-dihydro-2H-imidazo[4,5-c]pyridin-2-one, reference compound] it was greater than 10 µM.
With `CCOC(=O)N1CC(n2nc(-c3ccc(OC(F)(F)F)cc3)c3cccnc32)C1` [Com. EX.5, ethyl 3-(3-(4-(trifluoromethoxy)phenyl)-1H-pyrazolo[3,4-b]pyridin-1-yl)azetidine-1-carboxylate, reference compound], the EC50 was greater than 10 µM.
Turning to `C=CC(=O)N1CCC(n2nc(-c3ccc(C(F)(F)F)cc3)c3nc[nH]c(=O)c32)C1` (stereo not shown) [Compound 2, 1-(1-acryloylpyrrolidin-3-yl)-3-(4-(trifluoromethyl)phenyl)-1,6-dihydro-7H-pyrazolo[4,3-d]pyrimidin-7-one], the EC50 came out at 0.025 µM.
On to `C=CC(=O)N1CCC(c2nn(-c3ccc(C(F)(F)F)cc3)c3ccccc23)C1` (stereo not shown) [Compound 4, 1-(3-(1-(4-(trifluoromethyl)phenyl)-1H-indazol-3-yl)pyrrolidin-1-yl)prop-2-en-1-one], for which the EC50 was determined as 0.0155 µM.
Consider `C=CC(=O)N1CCC(n2nc(-c3ccc(C(F)(F)F)cc3)c3ncn(C)c(=O)c32)C1` (stereo not shown) [Compound 7, 1-(1-acryloylpyrrolidin-3-yl)-6-methyl-3-(4-(trifluoromethyl)phenyl)-1,6-dihydro-7H-pyrazolo[4,3-d]pyrimidin-7-one], for which the EC50 stood at 0.005 µM.
Consider `C=C(F)C(=O)N1CC(n2nc(-c3ccc(C(F)(F)F)cc3)c3cccnc32)C1C` (stereo not shown) [Compound 9, 2 fluoro-1-(2-methyl-3-(3-(4-(trifluoromethyl)phenyl)-1H-pyrazolo[3,4-b]pyridin-1 yl)azetidin-1 yl)prop-2-en-1-one], for which the 50% effective concentration (EC50) turned out to be 0.0014 µM.
As for `C=C(F)C(=O)N1CC(n2nc(Nc3ccc(C(F)(F)F)cc3)c3ccc(C)nc32)C1` [Compound 11, 2 fluoro-1-(3-(6-methyl-3-((4-(trifluoromethyl)phenyl)amino)-1H-pyrazolo[3,4-b]pyridin-1 yl)azetidin-1 yl)prop-2-en-1-one], the EC50 was 0.0007 µM.
`C=CC(=O)NC1CN(c2nc(-c3ccc(C(F)(F)F)cc3)n3ccccc23)C1` [Compound 13, N-(1-(3-(4-(trifluoromethyl)phenyl)imidazo[1,5-a]pyridin-1 yl)azetidin-3 yl)acrylamide]: the EC50 stood at 0.02 µM.
The same measure for `C=CC(=O)N1CC(n2nc(-c3ccc(C(F)(F)F)cc3)c3cccc(NC(C)=O)c32)C1` [Compound 15, N-(1-(1-acryloylazetidin-3 yl)-3-(4-(trifluoromethyl)phenyl)-1H-indazol-7-yl)acetamide]: 0.035 µM; for `C=CC(=O)N1CCC(n2nc(-c3ccc(C(F)(F)F)cc3)c3nccnc32)C1` (stereo not shown) [Compound 18, 1-(3-(3-(4-(trifluoromethyl)phen-yl)-1H-pyrazolo[3,4-b]pyrazin-1-yl)pyrrolidin-1-yl)prop-2-en-1-one]: 0.01 µM; for `C=CC(=O)N1CCC(n2nc(-c3ccc(C(F)(F)F)cc3)c3ccncc32)C1` (stereo not shown) [Compound 22, 1-(3-(3-(4-(trifluoromethyl)phen-yl)-1H-pyrazolo[3,4-c]pyridin-1-yl)pyrrolidin-1-yl)prop-2-en-1-one]: 0.02 µM.
Take `C=CC(=O)N1CCC(n2nc(-c3ccc(C(F)(F)F)cc3)c3cnccc32)C1` (stereo not shown) [Compound 23, 1-(3-(3-(4-(trifluoromethyl)phen-yl)-1H-pyrazolo[4,3-c]pyridin-1-yl)pyrrolidin-1-yl)prop-2-en-1-one]: the EC50 stood at 0.016 µM.
On to `C=CC(=O)N1CCC(n2nc(-c3ccc(C(F)(F)F)cc3F)c3cccnc32)C1` (stereo not shown) [Compound 29, 1-(3-(3-(2-fluoro-4-(trifluoro-methyl)phenyl)-1H-pyrazolo[3,4-b]pyridin-1-yl)pyrrolidin-1-yl)-prop-2-en-1-one], for which the EC50 came to 0.012 µM.
The same measure for `C=CC(=O)N1CCCC(n2nc(-c3ccc(C(F)(F)F)cc3)c3cccnc32)C1` (stereo not shown) [Compound 33, 1-(3-(3-(4-(trifluoromethyl)phen-yl)-1H-pyrazolo[3,4-b]pyridin-1-yl)piperidin-1-yl)prop-2-en-1-one]: 0.032 µM; for `C=CC(=O)N1CCC(Cn2nc(-c3ccc(C(F)(F)F)cc3)c3ccccc32)C1` (stereo not shown) [Compound 34, 1-(3-((3-(4-(trifluoromethyl)phen-yl)-1H-indazol-1-yl)methyl)-pyrrolidin-1-yl)prop-2-en-1-one]: 0.137 µM; for `C=CC(=O)NC1CCC(n2nc(-c3ccc(C(F)(F)F)cc3)c3ccccc32)C1` (stereo not shown) [Compound 37, N-(3-(3-(4-(trifluoromethyl)phen-yl)-1H-indazol-1-yl)cyclopentyl)-acrylamide]: 0.042 µM.
Regarding `C=CC(=O)N1CCC(n2nc(-c3ccc(C(F)(F)F)cc3)c3cccc(C)c32)C1` (stereo not shown) [Compound 39, 1-(3-(7-methyl-3-(4-(trifluoro-methyl)phenyl)-1H-indazol-1-yl)pyrrolidin-1-yl)prop-2-en-1-one], the EC50 worked out at 0.014 µM.
On to `C=CC(=O)N1CCC(n2nc(-c3ccc(C(F)(F)F)cc3)c3cccc(C(N)=O)c32)C1` (stereo not shown) [Compound 42, 1-(1-acryloylpyrrolidin-3-yl)-3-(4-(trifluoromethyl)phenyl)-1H-indazole-7-carboxamide], for which the EC50 was found to be 0.014 µM.
With `C=CC(=O)N1CCN(C(=O)c2nn(-c3ccc(C(F)(F)F)cc3)c3ccccc23)CC1` [Compound 43, 1-(4-(1-(4-(trifluoromethyl)phen-yl)-1H-indazole-3-carbonyl)-piperazin-1-yl)prop-2-en-1-one], the half-maximal effective concentration (EC50) is 0.011 µM.
For the molecule `C=CC(=O)N1CCC(n2nc(-c3ccc(C(F)(F)F)cc3)c3cccc(OC)c32)C1` (stereo not shown) [Compound 44, 1-(3-(7-methoxy-3-(4-(trifluoro-methyl)phenyl)-1H-indazol-1-yl)-pyrrolidin-1-yl)prop-2-en-1-one], the half-maximal effective concentration (EC50) stood at 0.02 µM.
Turning to `C=CC(=O)N1CCC(n2nc(-c3ccc(C(F)(F)F)cc3)c3cccc(Cl)c32)C1` (stereo not shown) [Compound 45, 1-(3-(7-chloro-3-(4-(trifluoro-methyl)phenyl)-1H-indazol-1-yl)-pyrrolidin-1-yl)prop-2-en-1-one], the 50% effective concentration (EC50) was found to be 0.015 µM.
Consider `C=CC(=O)N1CCC(n2nc(-c3ccc(C(F)(F)F)cc3)c3cccc(C(F)(F)F)c32)C1` (stereo not shown) [Compound 46, 1-(3-(7-(trifluoromethyl)-3-(4-(trifluoromethyl)phenyl)-1H-indazol-1-yl)pyrrolidin-1-yl)-prop-2-en-1-one], for which the EC50 was 0.012 µM.
For `C=CC(=O)N1CCC(n2nc(-c3ccc(C(F)(F)F)cc3)c3cccc(C#N)c32)C1` (stereo not shown) [Compound 48, 1-(1-acryloylpyrrolidin-3-yl)-3-(4-(trifluoromethyl)phenyl)-1H-indazole-7-carbonitrile], the EC50 stood at 0.015 µM.
`C=CC(=O)N1CCC(n2nc(-c3ccc(C(F)(F)F)cc3)c3ccc(F)cc32)C1` (stereo not shown) [Compound 50, 1-(3-(6-fluoro-3-(4-(trifluoro-methyl)phenyl)-1H-indazol-1-yl)-pyrrolidin-1-yl)prop-2-en-1-one]: the EC50 was determined as 0.023 µM.
In the case of `C=CC(=O)N1CCC(n2nc(-c3ccc(C(F)(F)F)cc3)c3cc(F)c(F)cc32)C1` (stereo not shown) [Compound 51, 1-(3-(5,6-difluoro-3-(4-(trifluoro-methyl)phenyl)-1H-indazol-1-yl)-pyrrolidin-1-yl)prop-2-en-1-one], the EC50 was determined as 0.044 µM.

(Values after patent publication US20230391779A1, “BICYCLIC COMPOUNDS, COMPOSITIONS AND USE THEREOF” (Betta Pharmaceuticals Co., Ltd., priority 2020, published 2023).)
